From patent US20060069132A1, “Azolecarboxamide herbicides” (priority 2004, published 2006)

Assays:
Surinam grass = assay: Test B pre-/postemergence herbicide test; type: in vivo, Urochloa decumbens; settings: for Surinam Grass plant response rating: postemergence, scale 0 (no effect) to 100 (complete control)
Outline: (§1)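 Greenhouse pot assay with simultaneous preemergence (treated seed) and postemergence (2–18 cm seedlings) applications of surfactant-containing, non-phytotoxic solvent formulations. Response scored visually 13–15 days later on a 0–100 scale, 100 meaning complete control.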

corn = assay: Test B pre-/postemergence herbicide test; type: in vivo, Zea mays; settings: for Corn plant response rating: postemergence, scale 0 (no effect) to 100 (complete control)
Outline: as §1

wheat = assay: Test B postemergence herbicide test; type: in vivo, Triticum aestivum; design: key to Wheat plant response rating: 0 = no effect, 100 = complete control; settings: postemergence, visual rating, scale 0 (no effect) to 100 (complete control)
Outline: (§2)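 Each value is a visual 0–100 response rating taken against controls 13 to 15 days after treatment in the greenhouse. Plants received formulated chemical postemergence at the 1- to 4-leaf stage or, in flooded paddy, at the 2-leaf stage.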

lambsquarters = assay: Test B pre-/postemergence herbicide test; type: in vivo, Chenopodium album; settings: for Lambsquarters plant response rating: postemergence, visual rating, scale 0 (no effect) to 100 (complete control)
Outline: as §1

cocklebur = assay: Test B pre-/postemergence herbicide test; type: in vivo, Xanthium strumarium; settings: for Cocklebur plant response rating: postemergence, scale 0 (no effect) to 100 (complete control)
Outline: (§3)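 Formulation: non-phytotoxic solvent mix with surfactant. Timing: preemergence on seed and postemergence on 2–18 cm plants, applied concurrently. Readout after 13–15 d greenhouse: visual 0–100 control rating against controls.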

rice [1] = assay: Test C flooded paddy test; type: in vivo, Oryza sativa
Outline: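 Injury scored visually against controls on a 0 (no effect) to 100 (complete control) scale, 12 to 14 days after treatment in greenhouse. Flooded paddy plants treated at 2-leaf stage; postemergence plants at 1- to 4-leaf stage, 2 to 18 cm tall.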

giant foxtail = assay: Test B pre-/postemergence herbicide test; type: in vivo, Setaria faberi; settings: for Foxtail, Giant plant response rating: postemergence, scale 0 (no effect) to 100 (complete control)
Outline: as §1

velvetleaf = assay: Test B pre-/postemergence herbicide test; type: in vivo, Abutilon theophrasti; settings: for Velvetleaf plant response rating: postemergence, scale 0 (no effect) to 100 (complete control)
Outline: as §1

barnyardgrass [2] = assay: Test B flooded paddy test; type: in vivo, Echinochloa crus-galli; settings: 1000 g ai/ha, visual rating, scale 0 to 100 (0 no effect, 100 complete control), 13 to 15 days
Outline: (§4)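 Scale 0–100: zero equals no visible effect, 100 complete control, judged by eye relative to controls. Timing: 13 to 15 days in greenhouse post-treatment. Growth stage at spraying: two leaves (paddy) or one to four leaves, 2–18 cm (postemergence).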

rice [3] = assay: Test B pre-/postemergence herbicide test; type: in vivo, Oryza sativa; settings: 0 = no effect, 100 = complete control, preemergence
Outline: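 Species tested were Echinochloa crus-galli, Ipomoea coccinea, Xanthium strumarium and Oryza sativa, treated both before emergence and at the 1- to 4-leaf stage; rice and barnyardgrass were also tested under flooding at 2 leaves. Greenhouse incubation lasted 13–15 days before visual 0–100 scoring.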

ducksalad [4] = assay: Test C flooded paddy test; type: in vivo, Heteranthera limosa
pigweed = assay: Test B pre-/postemergence herbicide test; type: in vivo, Amaranthus retroflexus; settings: for Pigweed plant response rating: postemergence, scale 0 (no effect) to 100 (complete control)
Outline: as §1

rice [5] = assay: Test B flooded paddy test; type: in vivo, Oryza sativa; settings: 1000 g ai/ha, visual rating, scale 0 to 100 (0 no effect, 100 complete control), 13 to 15 days
Outline: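 Greenhouse test; postemergence application to plants at 1–4 leaves (2–18 cm); paddy species at 2 leaves; evaluated visually vs controls at 13–15 days; scale 0–100 (100 = complete control).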

wild oat = assay: Test B postemergence herbicide test; type: in vivo, Avena fatua; settings: postemergence, visual rating, scale 0 (no effect) to 100 (complete control)
Outline: as §2

barnyardgrass [6] = assay: Test B pre-/postemergence herbicide test; type: in vivo, Echinochloa crus-galli; settings: for Barnyardgrass plant response rating: postemergence, scale 0 (no effect) to 100 (complete control)
Outline: as §3

barnyardgrass [7] = assay: Test C flooded paddy test; type: in vivo, Echinochloa crus-galli
Outline: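 Ratings (0 = no effect, 100 = complete control) come from visual comparison with untreated plants after 12 to 14 days in the greenhouse. Treatment was postemergence at the 1- to 4-leaf stage (2–18 cm), or at the 2-leaf stage for the flooded paddy barnyardgrass.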

[8] = test system: small flower umbrella sedge; assay: Test B flooded paddy test; type: in vivo, Cyperus difformis; settings: 1000 g ai/ha, visual rating, scale 0 to 100 (0 no effect, 100 complete control), 13 to 15 days
Outline: as §4

large crabgrass = assay: Test B pre-/postemergence herbicide test; type: in vivo, Digitaria sanguinalis; settings: for Crabgrass, Large plant response rating: postemergence, scale 0 (no effect) to 100 (complete control)
Outline: as §1

morningglory = assay: Test B pre-/postemergence herbicide test; type: in vivo, Ipomoea coccinea; settings: for Morningglory plant response rating: postemergence, scale 0 (no effect) to 100 (complete control)
Outline: as §3

blackgrass = assay: Test B postemergence herbicide test; type: in vivo, Alopecurus myosuroides; settings: postemergence, visual rating, scale 0 (no effect) to 100 (complete control)
Outline: as §4

[9] = test system: smallflower umbrella sedge; assay: Test C flooded paddy test; type: in vivo, Cyperus difformis
ducksalad [10] = assay: Test B flooded paddy test; type: in vivo, Heteranthera limosa; settings: 1000 g ai/ha, visual rating, scale 0 to 100 (0 no effect, 100 complete control), 13 to 15 days
Outline: as §4

[11] = 125 g ai/ha, 0 = no effect, 100 = complete control, preemergence
[12] = 500 g ai/ha, visual rating, 0 = no effect, 100 = complete control, preemergence
[13] = 62 g ai/ha, scale 0 to 100 (0 no effect, 100 complete control)
[14] = 125 g ai/ha, scale 0 to 100 (0 no effect, 100 complete control)
[15] = 250 g ai/ha, scale of 0 to 100, 0 is no effect, 100 is complete control
[16] = 500 g ai/ha, visual rating after 12 to 14 days, scale 0 to 100 (0 no effect, 100 complete control)

CCc1nc(C(C)(C)C)sc1C(=O)Nc1cc(C(=O)N(C)C)ccc1F [Compound 225]
80: Lambsquarters plant response rating (0 to 100 scale) (lambsquarters; [11]) | Plant response rating, Rice (rice [1]; [16]) | Barnyardgrass plant response rating (barnyardgrass [7]; [15]) | Plant response rating, Sedge, Umbrella [9, 16]
50: Lambsquarters plant response rating (lambsquarters; 125 g ai/ha)
85: Ducksalad plant response rating (ducksalad [4]; [15]) | Plant response rating, Ducksalad (ducksalad [4]; [16])
10: Surinam Grass plant response rating (Surinam grass; 125 g ai/ha, visual rating) | Corn plant response rating (corn; 125 g ai/ha, visual rating) | Wheat plant response rating (wheat; 125 g ai/ha) | Foxtail, Giant plant response rating (giant foxtail; 125 g ai/ha, visual rating) | Ducksalad plant response rating (ducksalad [4]; [13]) | Barnyardgrass plant response rating (barnyardgrass [6]; 125 g ai/ha, visual rating) | Crabgrass, Large plant response rating (0 to 100 scale) (large crabgrass; [11]) | Crabgrass, Large plant response rating (large crabgrass; 125 g ai/ha, visual rating) | Plant response rating, Morningglory (morningglory; [12]) | Morningglory plant response rating (morningglory; 125 g ai/ha, visual rating)
75: Rice plant response rating (rice [1]; [15]) | Ducksalad plant response rating (ducksalad [4]; [14]) | Sedge, Umbrella plant response rating [9, 14] | Sedge, Umbrella plant response rating [9, 15]
55: Rice plant response rating (rice [1]; [13])
65: Sedge, Umbrella plant response rating [9, 13]
30: Corn plant response rating (0 to 100 scale) (corn; [11]) | Wheat plant response rating (wheat; 500 g ai/ha) | Velvetleaf plant response rating (0 to 100 scale) (velvetleaf; [11]) | Velvetleaf plant response rating (velvetleaf; 125 g ai/ha, visual rating) | Oat, Wild plant response rating (wild oat; 500 g ai/ha) | Barnyardgrass plant response rating (barnyardgrass [6]; 500 g ai/ha, visual rating)
40: Plant response rating, Cocklebur (cocklebur; [12]) | Velvetleaf plant response rating (velvetleaf; 500 g ai/ha, visual rating) | Pigweed plant response rating (pigweed; 125 g ai/ha, visual rating) | Morningglory plant response rating (morningglory; 500 g ai/ha, visual rating) | Blackgrass plant response rating (blackgrass; 500 g ai/ha)
90: Plant response rating, Surinam Grass (Surinam grass; [12]) | Barnyardgrass plant response rating (barnyardgrass [2]) | Plant response rating, Rice (rice [3]; 500 g ai/ha, visual rating) | Rice plant response rating (rice [5]) | Plant response rating, Barnyardgrass (barnyardgrass [6]; [12]) | Plant response rating, Barnyardgrass (barnyardgrass [7]; [16]) | Sedge, Umbrella plant response rating [8] | Ducksalad plant response rating (ducksalad [10])
20: Surinam Grass plant response rating (0 to 100 scale) (Surinam grass; [11]) | Surinam Grass plant response rating (Surinam grass; 500 g ai/ha, visual rating) | Corn plant response rating (corn; 500 g ai/ha, visual rating) | Cocklebur plant response rating (cocklebur; 125 g ai/ha, visual rating) | Cocklebur plant response rating (cocklebur; 500 g ai/ha, visual rating) | Foxtail, Giant plant response rating (giant foxtail; 500 g ai/ha, visual rating) | Crabgrass, Large plant response rating (large crabgrass; 500 g ai/ha, visual rating) | Blackgrass plant response rating (blackgrass; 125 g ai/ha)
100: Plant response rating, Foxtail, Giant (giant foxtail; [12]) | Plant response rating, Velvetleaf (velvetleaf; [12]) | Plant response rating, Pigweed (pigweed; [12]) | Plant response rating, Crabgrass, Large (large crabgrass; [12])
70: Plant response rating, Corn (corn; [12]) | Lambsquarters plant response rating (lambsquarters; 500 g ai/ha) | Rice plant response rating (rice [1]; [14]) | Pigweed plant response rating (0 to 100 scale) (pigweed; [11]) | Pigweed plant response rating (pigweed; 500 g ai/ha, visual rating)
35: Barnyardgrass plant response rating (barnyardgrass [7]; [13])
0: Cocklebur plant response rating (0 to 100 scale) (cocklebur; [11]) | Oat, Wild plant response rating (wild oat; 125 g ai/ha) | Morningglory plant response rating (0 to 100 scale) (morningglory; [11])
60: Foxtail, Giant plant response rating (0 to 100 scale) (giant foxtail; [11]) | Rice plant response rating (0 to 100 scale) (rice [3]; 125 g ai/ha) | Barnyardgrass plant response rating (0 to 100 scale) (barnyardgrass [6]; [11]) | Barnyardgrass plant response rating (barnyardgrass [7]; [14])
